# Read-outs that look alike come from different tables or passages of the source.
# Assays:
# [1] = tested on: sulprostone-induced allodynic mice; experiment: Sulprostone-induced allodynia mouse model, paint brush stimulation pain score
# [2] = tested on: male Sprague-Dawley rats; details: for sedation: graded 30 minutes after administration
# Procedure: To test sedation, six male Sprague-Dawley rats are given various doses of a clonidine intrathecal injection. Sedation is graded 30 minutes following administration of the drug by monitoring locomotor skills as follows. Rats are placed in a dark covered chamber and a digicom analyzer (Omnitech Electronic) quantitates their exploratory behavior for a five-minute period. The machine records each time the rat interrupts an array of 32 photoelectric beams in the X and Y orientation, and quantifies the difference in behavior as compared to control animals given saline instead of clonidine.
# [3] = tested on: Chung model of allodynic rats; details: for analgesia (reversal of tactile allodynia): 30 minutes after administration
# Excerpt: A model for chronic pain (in particular peripheral neuropathy) involves the surgical ligation of the L5 (and optionally the L6) spinal nerves on one side in experimental animals. Rats recovering from the surgery gain weight and display a level of general activity similar to that of normal rats. However, these rats develop abnormalities of the foot, wherein the hindpaw is moderately everted and the toes are held together. More importantly, the hindpaw on the side affected by the surgery appears to become sensitive to pain from low-threshold mechanical stimuli, such as that producing a faint sensation of touch in a human, within about 1 week following surgery. This sensitivity to normally non-painful touch is called “tactile allodynia” and lasts for at least two months. The response includes lifting the affected hindpaw to escape from the stimulus, licking the paw and holding it in the air for many seconds. None of these responses is normally seen in the control group.
# Rats are anesthetized before surgery. The surgical site is shaved and prepared either with betadine or novacaine. Incision is made from the thoracic vertebra X111 down toward the sacrum. Muscle tissue is separated from the spinal vertebra (left side) at the L4-S2 levels. The L6 vertebra is located and the transverse process is carefully removed with a small rongeur to expose the L4-L6 spinal nerves. The L5 and L6 spinal nerves are isolated and tightly ligated with 6-0 silk thread. The same procedure is done on the right side as a control, except no ligation of the spinal nerves is performed.
# A complete hemostasis is confirmed, then the wounds are sutured. A small amount of antibiotic ointment is applied to the incised area, and the rat is transferred to the recovery plastic cage under a regulated heat-temperature lamp. […]
# In the Chung rat model, tactile allodynia is measured prior to and 30 minutes after drug administration using von Frey hairs that are a series of fine hairs with incremental differences in stiffness. […]
# [4] = tested on: intraocular pressure of male New Zealand rabbits; experiment: Normotensive intraocular pressure in rabbits after topical instillation (pneumatonometer); assay type: in vivo, rabbit
# Procedure: Male New Zealand rabbits are used to evaluate drug effects on normotensive IOP measurements. The rabbits are carefully handled so as to minimize excitement. They should be picked up by the nape of the neck, with their hindlegs supported by the other hand. After removing the rabbit from its cage, approximately 25 ul of dilute OphtheticR (0.05%) topical anesthesia is administered to each eye. An initial IOP determination is made in both eyes. Rabbits with 3 mmHg or greater difference in IOP between right and left eyes are replaced at this time.
# Immediately following the time zero (T=0) reading in both eyes, one eye of each experimental rabbit is instilled with an ophthalmic formulation of 0.1% (w/w) brimonidine tartrate onto the cornea of the randomly selected test eye. […] The other eye is given the vehicle containing no drug. The ophthalmic formulations comprise 50 ppm Purite®(stabilized chlorine dioxide), 0.5% carboxymethylcellulose, 0.6% (w/w) borate buffer (pH 7.7) and small amounts of salts (NaCl, KCl, CaCl2, MgCl2). Intraocular pressure of both treated (ipsalateral)and untreated (contralateral) eyes is measured at the indicated time intervals for seven hours. Pressure readings utilize a Model 30 Classic™ Pneumatonometer as the measuring and recording instrument. It measures intraocular pressure (IOP) non-invasively through applanation tonometry.
smiles,measurement,setting,value
"CN(C)CCC=C1c2ccccc2CCc2ccccc21 [amitriplylene, amitriptylene]",reduction in the dosage necessary to achieve maximal analgesia,[1]; amitriptylene intrathecal with 30 ug/kg IP 5-methylurapadil versus with saline,approximately three
Clc1cccc(Cl)c1N=C1NCCN1 [clonidine],shift of the effective analgesic dose lower versus clonidine alone,[1]; 5-methyl urapidil 30 μg/kg intraperitoneal 5 minutes before clonidine,10 fold
same,pain score,"[1]; clonidine 0.03 microgram intrathecal, prazosin given 15 minutes before",13.3±0.9
same,analgesia,[1]; clonidine 0.1 microgram intrathecal in the absence of prazosin,not analgesic
same,pain score,"[1]; clonidine 0.1 microgram intrathecal, prazosin given 15 minutes before",4.8±0.8
same,pain score,"[1]; clonidine 0.4 microgram intrathecal, prazosin given 15 minutes before",4.8±0.6
same,analgesia compared with intraperitoneal injection of the alpha 1 antagonist,[1]; clonidine (various doses) and 5-methylurapidil 1 microgram coadministered intrathecally,substantially similar
same,therapeutic window between pain and sedation,[1]; clonidine alone,3-10 fold
same,therapeutic window between pain and sedation,[1]; clonidine co-administered with alpha 1 antagonist (5-methyl urapidil 30 μg/kg i.p.),30-100 fold
same,decrease in the EC50 for clonidine analgesia versus i.t. clonidine alone,[1]; coadministration of prazosin 100 ng/kg i.p.,four
same,"analgesic activity, dose-dependent","[1]; mice, intrathecal",analgesic
same,sedation,[2]; intrathecal dose of 3.0 μg,mildly sedating
same,sedation,[2]; intrathecal dose of 10 μg,maximal sedation
same,separation between analgesia and sedation,"[2]; rats, intrathecal clonidine alone",3-10 fold
same,analgesia (reversal of tactile allodynia),[3]; intrathecal dose of 0.1 μg,no analgesia
same,analgesia (reversal of tactile allodynia),[3]; intrathecal dose of 1.0 μg,maximal analgesia
same,"analgesic activity, dose-dependent","[3]; rats, intrathecal",analgesic
CS(=O)(=O)NC(=O)CCC/C=C\C[C@H]1C(=O)C[C@@H](O)[C@@H]1/C=C/[C@@H](O)COc1ccccc1 [sulprostone],pain score,"[1]; sulprostone 200 ng intrathecal alone, 16-point scale",12-13
COc1cc2nc(N3CCN(C(=O)c4ccco4)CC3)nc(N)c2cc1OC [prazosin],intraocular pressure of treated eye compared to untreated eye,[4]; 35 microliters 0.003% prazosin alone (FIG. 4A),"small initial drop in intraocular pressure compared to the untreated eye, followed by a gradual increase in pressure"
Brc1c(NC2=NCCN2)ccc2nccnc12 [brimonidine],intraocular pressure,[4]; 0.1% brimonidine alone (FIG. 4B),"pronounced increase in intraocular pressure within the first 30 minutes, followed by a lowering of intraocular pressure thereafter"
same,"intraocular pressure, difference from brimonidine alone",[4]; 0.1% brimonidine and 0.001% prazosin (FIG. 4C),Little difference
same,initial intraocular pressure,[4]; 0.1% brimonidine and 0.003% prazosine (FIG. 4D),only a very small increase in initial intraocular pressure
